This is an account of results in article PMC6983213, “Combining Chalcones with Donepezil to Inhibit Both Cholinesterases and Aβ Fibril Assembly” (Molecules, 2019).

Usually EC50 stands for the midpoint of the concentration-response curve. The term IC50 denotes the point on the concentration scale where inhibition reaches its midpoint.

Values joined by “and” are separate entries in the source; they are usually repeats but may differ in a detail not shown here. Equal values may be shown once.

Assay [1] deals with T1, N-biotinyl-Aβ(1–42) (bioAβ42) oligomer assembly (Homo sapiens, UniProt P05067).
T1 construct: N-biotinyl Aβ(1–42) (bioAβ42) was purchased from Anaspec; purchased Anaspec (Fremont, CA, USA) AS-23523-05
Nature of the assay: biochemical. To be noted: for bioAβ42 oligomer assembly inhibition (in words): 1.56 to 50 μM, alone or in 1:1 / 1:1:1 mixtures; for EC50: concentration range 50 to 1.56 μM, duplicate, n = 3 independent experiments, ± SDEV, read-out: EC50 against bioAβ42 oligomer assembly. As to the method:
We first examined the effect of the synthesized 1,3- and 1,4-chalcone-donepezil hybrids 15a–15f and 16a–16f on the assembly of N-biotinyl-Aβ(1–42) (bioAβ42) monomers into oligomers. We quantified the assembly of bioAβ42 into soluble oligomers by using an ELISA assay in which the soluble oligomers were captured on NeutrAvidin^TM-coated ELISA plates and detected with streptavidin-horseradish peroxidase and colorimetric readout (Figure 3).
The plates were then stored in their blocked form at 4 °C prior to use for the oligomer assembly and dissociation assays.
The assembly of bioAβ42 into soluble oligomers was quantified with an ELISA assay in which the soluble oligomers were captured with the NeutrAvidin^TM coating the ELISA plates. The bound oligomers were detected with streptavidin-horseradish peroxidase (SA-HRP). […] Below, please find the details of the three steps (Steps 1–3) used for the oligomer assembly assay.
Step 1: Preparation of monomeric bioAβ42. For a low background, it was essential to rigorously pretreat the bioAβ42 peptide to convert (disaggregate) the multimeric species that form upon storage in the solid state, or even frozen in 1,1,1,3,3,3-hexafluoroisopropanol (HFIP) to monomers. The required amount of stock bioAβ42 peptide (0.5 mg dissolved at 1 mg/mL in HFIP) was pipetted into a polypropylene microfuge tube, dried to a thin film under a gentle air or N2 stream, and then disaggregated for 10 min at rt in neat trifluoroacetic acid (TFA). After removal of the TFA by drying with an air or N2 stream, DMSO was added to produce a 2.3 μg/mL (50×) stock solution.
Step 2: Assembly of bioAβ42 oligomers. 2 μL of disaggregated monomeric 50× bioAβ42 peptide in DMSO (prepared in Step 1) was pipetted into the bottom of each well of a polypropylene 96-well plate. […] The 96-well plate was sealed and incubated at rt for 30 min without shaking. The bioAβ42 oligomer assembly was stopped by adding 50 μL of 0.3% Tween 20 v/v in distilled H2O.
Step 3: Measurement of bioAβ42 oligomers. […] The 96-well plate was then sealed and incubated for 2 h while shaking at 150 rpm at rt. […] The plate was sealed and incubated for 1 h while shaking at 150 rpm at rt. The plate was washed as previously described, and 100 μL/well of HRP substrate (i.e., 1 mM:0.07 mM/tetramethylbenzidine:H2O2) in 0.2 M citrate buffer, pH 4.0 was added. The plate was incubated at rt for 5 to 10 min and the reaction was stopped by the addition of 100 μL/well of 1% v/v H2SO4. The absorbance of each well was read at 450 nm with a BioTek HT Synergy plate reader.
The effects of various chalcones, donepezil, donepezil analogue, and 1,3-chalcone-donepezil hybrids were tested for their ability to inhibit the bioAβ42 oligomer assembly and dissociation either alone or in combination with each other. The experiments were performed as described in the biotinyl-Aβ(1–42) (bioAβ42) oligomer assembly and dissociation assays section.

Assay [2] deals with EeAChE (AChE from Electrophorus electricus) (Electrophorus electricus, UniProt O42275). Nature of the assay: biochemical. To be noted: for IC50: Ellman's method, pH 8.0, 25 °C, triplicate, ± SDEV, read-out: Inhibition (IC50) of EeAChE; for selectivity index (SI): based on IC50 values against EeAChE and EfBChE. As for the experimental part: (§1) The ChE inhibition assays were performed as previously described. The 1,3- and 1,4-chalcone-donepezil hybrids (0.1 nM to 100 μM) were dissolved in sodium phosphate buffer ((100 μL), 0.1 M, pH 8.0). […] All assays were performed in triplicate. The data was plotted as a sigmoidal curve and IC50 values were calculated using SigmaPlot 14.0 (Systat Software, San Jose, CA, USA).

Assay [3] addresses EfBChE (BChE from Equus ferus) (Equus caballus, UniProt P81908). In words: biochemical. In kind it is biochemical. Particulars: Ellman's method, pH 8.0, 25 °C, triplicate, ± SDEV; read-out: Inhibition (IC50) of EfBChE. As for the experimental part:
as §1
For orientation: In Ellman's method for cholinesterases, released thiocholine reacts with DTNB.

For assay [4], the system named is ADPBC (Alzheimer's disease PIB binding complex). In words: 3H-PIB binding competition/titration, ADPBC. Set-up: species or system Human. Particulars: compounds at 10 μM (titration 10 to 0.03 μM); 1.2 nM 3H-PIB. As to the method: Human AD brain frontal cortical tissue (from the Sanders-Brown Center on Aging Alzheimer’s Disease Center Brain Bank at the University of Kentucky) was processed as follows.
The plates were sealed and incubated for 3 h at 22 °C, without shaking, and transferred to a 96-well Millipore Multiscreen HTS Hi Flow FB (GF/B) filter plate, and filtered with a multi-well plate vacuum manifold (Millipore Corporation, Bedford, MA, USA). […] Specific binding of ^3H-PIB was determined by subtracting the non-specific binding determined in the presence of 1 μM BTA-1.
The titration of compounds with ^3H-PIB bound to Aβ(1–40) and Aβ(1–42) fibrils and AD brain extract (ADPBC) were performed to further determine the competition of our compounds for the ^3H-PIB binding site of the AD brain. The experiments were performed as described in the ^3H-PIB binding assays of Section 3.4.3 with the use of a concentration range of 10 to 0.03 μM for the compounds tested.

T1 sequence (P05067 672-713): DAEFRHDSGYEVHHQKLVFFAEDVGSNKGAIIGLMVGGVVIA
EeAChE (AChE from Electrophorus electricus), sequence (O42275 24-633): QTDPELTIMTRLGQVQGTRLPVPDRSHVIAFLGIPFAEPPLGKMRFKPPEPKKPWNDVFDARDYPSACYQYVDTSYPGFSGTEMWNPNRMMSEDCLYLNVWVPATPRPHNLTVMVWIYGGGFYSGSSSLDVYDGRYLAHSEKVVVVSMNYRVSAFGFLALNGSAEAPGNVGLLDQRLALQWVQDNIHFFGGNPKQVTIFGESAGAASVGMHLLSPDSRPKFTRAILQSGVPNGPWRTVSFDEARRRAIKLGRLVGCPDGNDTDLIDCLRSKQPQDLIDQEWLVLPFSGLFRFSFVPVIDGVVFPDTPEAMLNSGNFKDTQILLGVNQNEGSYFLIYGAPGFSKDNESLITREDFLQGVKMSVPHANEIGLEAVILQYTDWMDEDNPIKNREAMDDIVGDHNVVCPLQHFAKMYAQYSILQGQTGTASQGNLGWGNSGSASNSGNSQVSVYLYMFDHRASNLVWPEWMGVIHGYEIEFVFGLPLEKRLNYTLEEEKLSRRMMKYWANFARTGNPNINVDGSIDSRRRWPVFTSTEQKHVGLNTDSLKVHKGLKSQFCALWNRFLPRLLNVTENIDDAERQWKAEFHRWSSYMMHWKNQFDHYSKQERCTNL
EfBChE (BChE from Equus ferus), sequence (P81908 whole entry): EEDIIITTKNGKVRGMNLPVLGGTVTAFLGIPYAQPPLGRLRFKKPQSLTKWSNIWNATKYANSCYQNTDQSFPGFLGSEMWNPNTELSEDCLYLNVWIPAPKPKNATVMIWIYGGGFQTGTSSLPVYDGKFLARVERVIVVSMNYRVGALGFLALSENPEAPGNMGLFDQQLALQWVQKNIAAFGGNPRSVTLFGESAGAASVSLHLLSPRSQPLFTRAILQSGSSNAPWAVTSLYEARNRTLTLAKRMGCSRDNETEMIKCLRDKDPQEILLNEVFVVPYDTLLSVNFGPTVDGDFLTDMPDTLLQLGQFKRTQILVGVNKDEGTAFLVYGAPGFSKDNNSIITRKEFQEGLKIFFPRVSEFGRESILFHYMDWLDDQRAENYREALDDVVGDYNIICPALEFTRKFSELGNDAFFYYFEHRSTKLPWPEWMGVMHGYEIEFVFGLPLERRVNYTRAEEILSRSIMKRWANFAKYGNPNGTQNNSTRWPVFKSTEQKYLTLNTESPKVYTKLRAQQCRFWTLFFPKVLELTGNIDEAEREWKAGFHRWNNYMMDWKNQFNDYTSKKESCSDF

As to `COc1cc2c(cc1OCCCCCCOc1cccc(C(=O)/C=C/c3ccc(N(C)C)cc3)c1)C(=O)C(CC1CCN(Cc3ccccc3)CC1)C2` (stereo not shown) [15c, (E)-2-((1-Benzylpiperidin-4-Yl)Methyl)-6-((6-(3-(3-(4-(Dimethylamino)Phenyl)Acryloyl)Phenoxy)Hexyl)Oxy)-5-Methoxy-2,3-Dihydro-1H-Inden-1-One], in assay [1], the “bioAβ42 oligomer assembly inhibition (in words)” value is given as “better inhibition of bioAβ42 oligomer assembly” and the EC50 worked out at 8.67 ± 0.15 µM. Further, in assay [2], the IC50 is 1.22 ± 0.18 µM and the “selectivity index (SI)” value was “≈3.3”. Moreover, the IC50 in assay [3] is ~4 µM.

As to `COc1cc2c(cc1OCCCCCCCCOc1cccc(C(=O)/C=C/c3ccc(N(C)C)cc3)c1)C(=O)C(CC1CCN(Cc3ccccc3)CC1)C2` (stereo not shown) [15d, (E)-2-((1-Benzylpiperidin-4-Yl)Methyl)-6-((8-(3-(3-(4-(Dimethylamino)Phenyl)Acryloyl)Phenoxy)Octyl)Oxy)-5-Methoxy-2,3-Dihydro-1H-Inden-1-One], in assay [1], the “bioAβ42 oligomer assembly inhibition (in words)” value is given as “better inhibition of bioAβ42 oligomer assembly” and the EC50 was found to be 9.67 ± 1.15 µM. In assay [2], the IC50 was determined as 1.22 ± 0.13 µM and the “selectivity index (SI)” value is given as “≈1.6”. Besides, the IC50 in assay [3] is ~2 µM.

Turning to `COc1cc2c(cc1OCCCCCCCCCCOc1cccc(C(=O)/C=C/c3ccc(N(C)C)cc3)c1)C(=O)C(CC1CCN(Cc3ccccc3)CC1)C2` (stereo not shown) [15e, (E)-2-((1-Benzylpiperidin-4-Yl)Methyl)-6-((10-(3-(3-(4-(Dimethylamino)Phenyl)Acryloyl)Phenoxy)Decyl)Oxy)-5-Methoxy-2,3-Dihydro-1H-Inden-1-One], in assay [1], the “bioAβ42 oligomer assembly inhibition (in words)” value was “did not prevent bioAβ42 oligomerization”; the EC50 was 31.7 µM and > 12 µM. For the same compound, in assay [2], the half-maximal inhibitory concentration (IC50) is 1.82 ± 0.45 µM and the “selectivity index (SI)” value was “≈5.5”. The IC50 in assay [3] was ~10 µM.

Turning to `COc1cc2c(cc1OCCCCCCCCCCCCOc1cccc(C(=O)/C=C/c3ccc(N(C)C)cc3)c1)C(=O)C(CC1CCN(Cc3ccccc3)CC1)C2` (stereo not shown) [15f, (E)-2-((1-Benzylpiperidin-4-Yl)Methyl)-6-((12-(3-(3-(4-(Dimethylamino)Phenyl)Acryloyl)Phenoxy)Dodecyl)Oxy)-5-Methoxy-2,3-Dihydro-1H-Inden-1-One], in assay [1], the “bioAβ42 oligomer assembly inhibition (in words)” value was “did not prevent bioAβ42 oligomerization”; the EC50 is 45.3 µM and > 12 µM. In assay [2], the IC50 turned out to be 1.67 ± 0.8 µM and the “selectivity index (SI)” value is >60. In assay [3], the IC50 is > 100 µM.

With `COc1cc2c(cc1OCCCCOc1ccc(C(=O)/C=C/c3ccc(N(C)C)cc3)cc1)C(=O)C(CC1CCN(Cc3ccccc3)CC1)C2` (stereo not shown) [16b, (E)-2-((1-Benzylpiperidin-4-Yl)Methyl)-6-(4-(4-(3-(4-(Dimethylamino)Phenyl)Acryloyl)Phenoxy)Butoxy)-5-Methoxy-2,3-Dihydro-1H-Inden-1-One], in assay [1], the “bioAβ42 oligomer assembly inhibition (in words)” value is recorded as “better inhibition of bioAβ42 oligomer assembly” and the EC50 came out at 2 ± 0.2 µM. Moreover, in assay [2], the IC50 is 0.14 ± 0.02 µM and the “selectivity index (SI)” value is “≈3.6”. Further, the IC50 in assay [3] is ~0.5 µM.

Consider `COc1cc2c(cc1OCCCCCCOc1ccc(C(=O)/C=C/c3ccc(N(C)C)cc3)cc1)C(=O)C(CC1CCN(Cc3ccccc3)CC1)C2` (stereo not shown) [16c, (E)-2-((1-Benzylpiperidin-4-Yl)Methyl)-6-((6-(4-(3-(4-(Dimethylamino)Phenyl)Acryloyl)Phenoxy)Hexyl)Oxy)-5-Methoxy-2,3-Dihydro-1H-Inden-1-One], for which, in assay [1], the “bioAβ42 oligomer assembly inhibition (in words)” value is “better inhibition of bioAβ42 oligomer assembly” and the EC50 is 2.6 ± 0.46 µM. In assay [2], the IC50 is ~0.5 µM and the “selectivity index (SI)” value is “≈1.2”. Also, in assay [3], the IC50 is ~0.6 µM.

Take `COc1cc2c(cc1OCCCCCCCCOc1ccc(C(=O)/C=C/c3ccc(N(C)C)cc3)cc1)C(=O)C(CC1CCN(Cc3ccccc3)CC1)C2` (stereo not shown) [16d, (E)-2-((1-Benzylpiperidin-4-Yl)Methyl)-6-((8-(4-(3-(4-(Dimethylamino)Phenyl)Acryloyl)Phenoxy)Octyl)Oxy)-5-Methoxy-2,3-Dihydro-1H-Inden-1-One]: in assay [1], the “bioAβ42 oligomer assembly inhibition (in words)” value was “better inhibition of bioAβ42 oligomer assembly” and the EC50 came to 4.13 ± 0.15 µM. Also, in assay [2], the IC50 was 0.52 ± 0.06 µM and the “selectivity index (SI)” value is “≈1.9”. Further, the IC50 in assay [3] is ~1 µM.

Turning to `COc1cc2c(cc1OCCCCCCCCCCOc1ccc(C(=O)/C=C/c3ccc(N(C)C)cc3)cc1)C(=O)C(CC1CCN(Cc3ccccc3)CC1)C2` (stereo not shown) [16e, (E)-2-((1-Benzylpiperidin-4-Yl)Methyl)-6-((10-(4-(3-(4-(Dimethylamino)Phenyl)Acryloyl)Phenoxy)Decyl)Oxy)-5-Methoxy-2,3-Dihydro-1H-Inden-1-One], in assay [1], the “bioAβ42 oligomer assembly inhibition (in words)” value is given as “did not prevent bioAβ42 oligomerization” and the EC50 came to 9.73 ± 0.55 µM. Besides, the IC50 in assay [2] was 1.38 ± 0.18 µM. The “displacement of 3H-PIB from ADPBC (in words)” value in assay [4] is recorded as “ADPBC affinity comparable to that of 16a”. Further, the IC50 in assay [3] was ~5 µM.

For the compound `COc1cc2c(cc1OCCCCCCCCCCCCOc1ccc(C(=O)/C=C/c3ccc(N(C)C)cc3)cc1)C(=O)C(CC1CCN(Cc3ccccc3)CC1)C2` (stereo not shown) [16f, (E)-2-((1-Benzylpiperidin-4-Yl)Methyl)-6-((12-(4-(3-(4-(Dimethylamino)Phenyl)Acryloyl)Phenoxy)Dodecyl)Oxy)-5-Methoxy-2,3-Dihydro-1H-Inden-1-One], in assay [1], the “bioAβ42 oligomer assembly inhibition (in words)” value is recorded as “did not prevent bioAβ42 oligomerization”; the EC50 is 24.1 µM and > 12 µM. For the same compound, the IC50 in assay [2] was > 100 µM. Moreover, the “displacement of 3H-PIB from ADPBC (in words)” value in assay [4] is listed as “ADPBC affinity comparable to that of 16a”. Also, the IC50 in assay [3] was > 100 µM.

For `CN(C)c1ccc(/C=C/C(=O)c2ccc(O)cc2)cc1` [compound 6, (E)-3-(4-(Dimethylamino)Phenyl)-1-(4-Hydroxyphenyl)Prop-2-En-1-One], the EC50 in assay [1] is > 50 µM.
